Two compounds from patent publication US12484582B2, “Herbicidal compound” (PRO FARM GROUP, INC., priority 2017, dated 2025) can be followed below.

The test deals with Burgundy amaranth (Amaranthus hypochondriacus). In words: Herbicidal bioassay against Burgundy amaranth (foliar spray, evaluated 6 days after application). The format is in vivo. Conditions: 144 h, read-out: (%) Mortality/Control at Concentration (μg/mL). From the text: As noted above, the herbicidal compositions can be chemically synthesized or derived from a biological organism. Here, the culture broth derived from the 100 L fermentation Burkholderia (A396) was extracted to give crude extract. The crude extract was then fractionated using reversed-phase C18 vacuum liquid chromatography (H2O/CH3OH) to give 5 fractions. These fractions were then screened for herbicidal activity using plant assay with Amaranthus hypochondriacus (Burgundy amaranth). The active fractions (F3 & F4) were then subjected to reversed phase HPLC to give pure compounds, which were then tested in the above mentioned bioassay to locate/identify the active compounds. […] To confirm the identity of the compounds, additional spectroscopic data such as LC-MS and NMR were recorded. Based on the detailed analysis of the data, the two compounds were identified as FR 901464 (MW 507) and spliceostatin C (MW 519). Note that different fermentation method would produce different (or no) amount of the below compound(s), some none at all.
Burgundy amaranth (Amaranthus hypochondriacus) plants were grown in a greenhouse to the 3-4 leaf stage in 2.5 cm square pots containing plant growth mix with slow release fertilizer. Treatments were then applied using a research cabinet track sprayer fitted with an 8001 nozzle and at a carrier volume of 20 gal/A. Negative controls were sprayed with water. Pots were blocked and randomized by treatment after spray and placed in a growth room at 25° C. and 50% RH, and watered as necessary. Plants were evaluated 6 days after application for visual damage and fresh weight. Data in Table 1 was subjected to ANOVA and means were separated using the Tukey method with 95% confidence intervals.

As for `CC(=O)OC(C)/C=C\C(=O)NC1CC(C)C(C/C=C(C)/C=C/C2OC(C)(O)CC3(CO3)C2O)OC1C` (stereo not shown) [FR901464], the mortality at 0.65 µg/mL came out at 44% and the mortality at 1.3 µg/mL worked out at 84%.
For the compound `CC(=O)OC(C)/C=C\C(=O)NC1CC(C)C(C/C=C(C)/C=C/C2CC3(CO3)CC(CC(=O)O)O2)OC1C` (stereo not shown) [Spliceostatin C], the mortality at 0.65 µg/mL was 44% and the mortality at 1.3 µg/mL was determined as 80%.
